Reference: patent publication US8288377B2, “Inhibitors of the interaction between MDM2 and p53” (Janssen Pharmaceutica N.V., priority 2007, dated 2012)

Columns and labels:
[1] = test system: A2780 ovarian cancer cells; experiment: Proliferation assay (Alamar Blue); assay type: cell-based; settings: Homo sapiens, 96 h, 4-day incubation, read-out: pIC50 (negative log value of the IC50-value) (converted)
Protocol: Cellular activity of the compounds of formula (I) was determined on A2780 tumour cells using a colorimetric assay for cell toxicity or survival (see example C.2).
The human A2780 ovarian cancer cells were a kind gift from Dr. T. C. Hamilton (Fox Chase Cancer Centre, Pennsylvania, U.S.A.). The cells were cultured in RPMI 1640 medium supplemented with 2 mM L-Glutamine, 50 μg/ml gentamicin and 10% fetal calf serum.
Resazurin was purchased from Aldrich (Prod. No. 199303). Potassium ferrocyanide, potassium ferricyanide, KH2PO4 and K2HPO4 were purchased from Sigma (Prod. Nos. P9387, P8131, P5655 and P8281, respectively).
Potassium Phosphate Buffer 0.1 M (PPB) was made as follows: 2.72 gram KH2PO4 and 13.86 gram K2HPO4 were dissolved in 500 ml milli-Q H2O, the pH was adjusted to pH 7.4 and the volume was brought to 1 liter with milli-Q H2O; the buffer was filter sterilised and stored at room temperature. Resazurin stock solution (PPB-A) was prepared fresh by dissolving 45 mg resazurin in 15 ml PBS. 30 mM potassium ferricyanide (PPB-B) was prepared by dissolving 0.987 gram potassium ferricyanide in 100 ml PPB. 30 mM potassium ferrocyanide (PPB-C) was prepared by dissolving 1.266 gram potassium ferrocyanide in 100 ml PPB.
Mixture of PPB-A, PPB-B and PPB-C was prepared by mixing equal volumes of the respective solutions. Resazurin work solution (herein termed “Alamar Blue” solution) was prepared by diluting said mixture 20× (vol/vol) in PPB and filter sterilising; the Alamar Blue solution could be kept at 4° C. for a maximum of 2 weeks.
For experiments in 384 wells plates the cells were seeded at a density of 5×10^3 cells/ml in Falcon 384-well culture plates (Life Technologies, Merelbeke, Belgium), black with clear bottom, in 45 μl culture medium. Cells were allowed to adhere to plastic for 24 hr. The tested compound was pre-diluted (1/50 in culture medium) and 5 μl pre-diluted compound was added to the wells. Following 4-day incubation, 10 μl of the Alamar Blue solution was added to each well and the cells were further incubated for 5 hrs (A2780) at 37° C. The fluorescence intensity was measured for each well with a Fluorescence plate reader (Fluorskan, Labsystems, 540 nm excitation and 590 nm emission)
The antiproliferative activity was calculated as percentage of remaining viable cells in treated versus control (untreated cells) conditions. Within an experiment, the result for each experimental condition is the mean of 3 replicate wells. When appropriate, the experiments were repeated to establish full concentration-response curves. When appropriate, IC50-values (concentration of the drug, needed to reduce cell growth to 50% of the control) were computed using probit analysis for graded data (Finney, D. J., Probit Analyses, 2nd Ed. Chapter 10, Graded Responses, Cambridge University Press, Cambridge 1962). Herein the effects of test compounds are expressed as pIC50 (the negative log value of the IC50-value) (see Table 4).

[2] = test system: p53 in A2780 cells; experiment: p53 ELISA (preservation of p53 in A2780 cells); assay type: cell-based; settings: Homo sapiens, treated with compound for 16 hours, read-out: p53-elisa LAD (lowest dose giving at least 140% of the value for p53 present in the control)
Protocol: The capacity of the compounds to preserve p53 in A2780 cells was measured with the p53 enzyme linked immunosorbent assay (ELISA). The p53 assay is a “sandwich” enzyme immunoassay employing two polyclonal antibodies. A polyclonal antibody, specific for the p53 protein, has been immobilized onto the surface of the plastic wells. Any p53 present in the sample to be assayed will bind to the capture antibody. The biotinylated detector polyclonal antibody also recognizes p53 protein, and will bind to any p53, which has been retained by the capture antibody. The detector antibody, in turn, is bound by horseradish peroxidase-conjugated streptavidin. The horseradish peroxidase catalyses the conversion of the chromogenic substrate o-phenylene diamine, the intensity of which is proportional to the amount of p53 protein bound to the plate. The coloured reaction product is quantified using a spectrophotometer. Quantitation is achieved by the construction of a standard curve using known concentrations of purified recombinant HIS tagged p53 protein (see example C.1).
A2780 cells (ATCC) were cultivated in RPMI 1640 supplemented with 10% fetal calf serum (FCS), 2 mM L-glutamine and gentamycin at 37° C. in a humidified incubator with 5% CO2.
A2780 cells were seeded at 20.000 cells per well in a 96 well plate, cultured for 24 hours and treated with compound for 16 hours at 37° C. in a humidified incubator. After incubation, the cells were washed once with phosphate-buffered saline and 30 μl, per well, low salt RIPA buffer (20 mM tris, pH7.0, 0.5 mM EDTA, 1% Nonidet P40, 0.5% DOC, 0.05% SDS, 1 mM PMSF, 1 μg/ml aprotinin and 0.5 μ/ml leupeptin) was added. Plates were placed on ice for 30 minutes to complete the lysis. p53 protein was detected in de lysates by using the sandwich ELISA, described below.
High binding polystyrene EIA/RIA 96 well plates (Costar 9018) were coated with the capture antibody pAb1801 (Abcam ab28-100) at a concentration of 1 μg/ml in coating buffer (0.1 M NaHCO3 pH8.2), 50 μl per well. The antibody was allowed to adhere overnight at 4° C. Coated plates were washed once with phosphate-buffered saline (PBS)/0.05% Tween 20 and 300 μl of blocking buffer (PBS, 1% bovine serum albumins (BSA)) was added, for an incubation period of 2 hours at room temperature. Dilutions of purified recombinant HIS tagged p53 protein, ranging from 3-200 ng/ml, were made in blocking buffer and used as standards.
Plates were washed twice with PBS/0.05% Tween 20 and blocking buffer or standards were added at 80 μl/well. To the standards, 20 μl of lysis buffer was added. The samples were added to the other wells at 20 μl lysate/well. After an overnight incubation at 4° C., plates were washed twice with PBS/0.05% Tween 20. Aliquots of 100 μl secondary polyclonal antibody p53(FL-393) (Tebubio, sc-6243) at a concentration of 1 μg/ml in blocking buffer were added to each well and allowed to adhere for 2 hours at room temperature. Plates were washed three times with PBS/0.05% Tween 20. Detection antibody anti-rabbit HRP (sc-2004, Tebubio) at 0.04 μg/ml in PBS/1% BSA was added and incubated for 1 hour at room temperature. Plates were washed three times with PBS/0.05% Tween 20 and 100 μl of substrate buffer was added (substrate buffer was prepared shortly before use by adding 1 tablet of 10 mg o-phenylene diamine (OPD) from Sigma and 125 μl 3% H2O2 to 25 ml OPD buffer: 35 mM citric acid, 66 mM Na2HPO4, pH5.6). After 5 to 10 minutes, colour reaction was stopped by adding 50 μl stop buffer (1 M H2SO4) per well. The absorbance at dual wavelengths of 490/655 nm was measured using a Biorad micro plate reader and the results were then analyzed.
For each experiment, controls (containing no drug) and a blank incubation (containing no cells or drugs) were run in parallel. The blank value was subtracted from all control and sample values. For each sample, the value of p53 (in absorbance units) was expressed as the percentage of the value for p53 present in the control. […]

| SMILES | IC50 [1] [µM] | minimal effective concentration [2] [µM] |
| --- | --- | --- |
| CC1Oc2cc(Nc3ccnc(CO)c3)ccc2N(CCc2c[nH]c3ccccc23)C1=O (centres unmarked) [Compound 65] | > 10 | > 10 |
| OCc1cc(Nc2ccc3c(c2)CCCN3CCc2c[nH]c3ccccc23)ccn1 [Compound 66] | 1.41 | 3 |
| OCc1cc(Nc2ccc3c(c2)OCCN3CCc2csc3ccccc23)ccn1 [Compound 67] | 5.01 | 10 |
| OCc1cc(Nc2ccc3c(c2)OCCN3CCc2coc3ccccc23)ccn1 [Compound 68] | 5.25 | > 10 |
| OCc1cc(Nc2cc(F)c3c(c2)OCCN3CCc2c[nH]c3ccccc23)ccn1 [Compound 69] | > 10 | 10 |
| OC1CCc2c(Nc3ccc4c(c3)OCCN4CCc3coc4ccccc34)ccnc21 (centres unmarked) [Compound 70] | 6.46 | 10 |
| COc1cccc2c(CCN3CCOc4cc(Nc5ccnc6c5CCC6O)ccc43)c[nH]c12 (centres unmarked) [Compound 71] | 5.25 | > 10 |
| Cc1cccc2c(CCN3CCOc4cc(Nc5ccnc(CO)c5)ccc43)c[nH]c12 [Compound 72] | 4.68 | > 10 |
| CN1CCN(CCc2c[nH]c3ccccc23)c2ccc(Nc3ccnc4c3CCC4O)cc21 (centres unmarked) [Compound 75] | ~5.25 | > 10 |
| CN1CCN(CCc2c[nH]c3ccccc23)c2ccc(Nc3ccncc3)cc21 [Compound 76] | 3.31 | 10 |
| CC1(C)CN(CCc2c[nH]c3ccccc23)c2ccc(Nc3ccnc4c3CCC4O)cc2O1 (centres unmarked) [Compound 77] | 2.19 | 3 |
| CC1(C)CN(CCc2c[nH]c3ccccc23)c2ccc(Nc3ccnc(CO)c3)cc2O1 [Compound 78] | 6.17 | > 10 |
| COc1cccc2c(CCN3CCOc4cc(Nc5ccnc(CO)c5)ccc43)c[nH]c12 [Compound 81] | 4.17 | > 10 |
